This note sets out measurements from patent US20180057507A1, “INHIBITORS OF DUAL LEUCINE ZIPPER (DLK) KINASE FOR THE TREATMENT OF DISEASE” (Board of Regents, The University of Texas System, priority 2016, published 2018).

Experiment [1] deals with T1, human DLK (Homo sapiens, UniProt Q12852).
T1 sequence (Q12852 1-859): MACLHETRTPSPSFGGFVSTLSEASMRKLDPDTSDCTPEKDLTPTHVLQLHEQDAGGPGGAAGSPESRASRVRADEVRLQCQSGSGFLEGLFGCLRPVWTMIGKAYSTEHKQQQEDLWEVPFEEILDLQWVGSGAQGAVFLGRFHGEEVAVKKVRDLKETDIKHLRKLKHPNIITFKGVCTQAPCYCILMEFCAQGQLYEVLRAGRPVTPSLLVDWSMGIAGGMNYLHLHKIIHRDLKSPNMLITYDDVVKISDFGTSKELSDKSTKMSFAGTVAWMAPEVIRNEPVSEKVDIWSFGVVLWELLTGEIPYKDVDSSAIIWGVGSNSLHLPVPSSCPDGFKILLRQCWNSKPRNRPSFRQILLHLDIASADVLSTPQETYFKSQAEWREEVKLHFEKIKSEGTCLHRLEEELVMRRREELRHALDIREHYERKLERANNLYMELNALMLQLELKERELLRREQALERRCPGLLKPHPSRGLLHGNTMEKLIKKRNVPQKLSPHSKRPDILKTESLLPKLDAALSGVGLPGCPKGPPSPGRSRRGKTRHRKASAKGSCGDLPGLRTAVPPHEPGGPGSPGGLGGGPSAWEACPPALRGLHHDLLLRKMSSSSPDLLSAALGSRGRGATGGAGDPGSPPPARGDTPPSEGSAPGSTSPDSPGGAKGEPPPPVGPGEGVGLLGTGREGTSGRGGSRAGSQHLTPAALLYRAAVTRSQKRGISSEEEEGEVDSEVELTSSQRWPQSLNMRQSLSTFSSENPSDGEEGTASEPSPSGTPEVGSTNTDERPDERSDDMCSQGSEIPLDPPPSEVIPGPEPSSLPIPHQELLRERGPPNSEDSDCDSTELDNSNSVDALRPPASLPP
Kind of experiment: Phospho-cJun Cellular Assay. The class given is cell-based. More on the design: expressed in transfected cells. As to conditions: HEK293 cells stably transfected with Dox-inducible human DLK; p-cJun (Ser63); 5 h compound incubation. On the procedure:
Phospho-cJun Cellular Assay
HEK293 cells stably transfected with a Dox-inducible human DLK were plated into a 384-well plate in 20 μl (40,000 cells/well) of DMEM medium (without phenol red) containing 10% fetal bovine serum, 1.5 μg/ml doxycycline and 1 μg/ml puromycin. The cells as negative control were grown in the absence of doxycycline. The plate was incubated at 37° C., 5% CO2 for 20 h, before DMSO (control) or compounds diluted in medium were added. The cells were incubated at 37° C. for an additional 5 h, followed by lysis and the addition detection antibodies from p-cJun (Ser63) cellular assay kit (Cisbio) per manufacturer protocol. The standard dose response curves were fitted by Genedata Screener software using the variable-slope model: Signal=Signalnegative control+(SignalDMSO control−Signalnegative control)/(1+(IC50/Dose)̂Hill slope). Only signal and dose in the equation were treated as known values.

The target in experiment [2] is T1, human DLK. Kind of experiment: DLK Kd Determinations (KINOMEscan KdELECT, DiscoveRx). Also noted: full length of human DLK (amino acids 1-859); host or cells: transiently transfected HEK293 cells; unpurified extract. As to conditions: fusion protein of full length human DLK (amino acids 1-859) and NFkB DNA binding domain; qPCR readout; duplicate. Summed up: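 Competition binding of full-length human DLK (aa 1-859)-NFkB DBD fusion, DNA-tagged, from HEK293 extracts against an immobilized ligand; 1 h at room temperature, 0.9% DMSO. Bead-bound kinase was quantified by qPCR. Kd came from an 11-point 3-fold series (top 30,000 nM), in duplicate, with Hill slope fixed at −1.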
(Real-time PCR tracks product formation cycle by cycle.)

Each structure is given as a SMILES string. pIC50, pKd: −log10 of the molar value.

A word on the pIC50: it is the IC50 on a negative log10 scale, so that one unit is a factor of ten. A low value points to a high IC50. A word on the pKd: it is the Kd on a negative log10 scale, so that one unit is a factor of ten.

As to `CC(C)c1nc(-c2cnc(N)c(OC(F)(F)F)c2)cn1[C@H]1[C@@H]2CN(C3CCOCC3)C[C@@H]21` [Example 81, 5-(2-isopropyl-1-((1R,5S,6s)-3-(tetrahydro-2H-pyran-4-yl)-3-azabicyclo[3.1.0]hexan-6-yl)-1H-imidazol-4-yl)-3-(trifluoromethoxy)pyridin-2-amine], the pIC50 at human DLK [1] was 5.82. On human DLK [2], the pKd is 7.00.
The corresponding values for `Nc1ncc(-c2cn([C@H]3[C@@H]4CN(CCF)C[C@@H]43)c(CC3CC3)n2)cc1C(F)(F)F` [Example 77, 5-(2-(cyclopropylmethyl)-1-((1R,5S,6s)-3-(2-fluoroethyl)-3-azabicyclo[3.1.0]hexan-6-yl)-1H-imidazol-4-yl)-3-(trifluoromethyl)pyridin-2-amine] are 5.83 and 7.77.
For `CC(C)c1nc(-c2cnc(N)c(C(F)(F)F)c2)cn1C1CCC1` [Example 7, 5-[1-cyclobutyl-2-(propan-2-yl)-1H-imidazol-4-yl]-3-(trifluoromethyl)pyridin-2-amine], the pIC50 against human DLK [1] was 5.97. This compound also showed a pKd at human DLK [2] of 7.18.
The corresponding values for `CN1CCN(C2C[C@@H]3[C@H](C2)[C@H]3n2cc(-c3cnc(N)c(OC(F)F)c3)nc2C2CC2)CC1` (some centres unmarked) [Example 150, 5-(2-cyclopropyl-1-(3-(4-methylpiperazin-1-yl)bicyclo[3.1.0]hexan-6-yl)-1H-imidazol-4-yl)-3-(difluoromethoxy)pyridin-2-amine] are 5.96 and 7.27.
The corresponding values for `CC(C)c1nc(-c2cnc(N)c(OC(F)(F)F)c2)cn1[C@H]1[C@@H]2CC(N3CCOC[C@@H]3C)C[C@@H]21` (single isomer, unassigned) [Example 157a] are 6.05 and 7.24.
The corresponding values for `Nc1ncc(-c2cn([C@H]3[C@@H]4CN(CCF)C[C@@H]43)c(CC3CC3)n2)cc1OC(F)F` [Example 116, 5-(2-(cyclopropylmethyl)-1-((1R,5S,6s)-3-(2-fluoroethyl)-3-azabicyclo[3.1.0]hexan-6-yl)-1H-imidazol-4-yl)-3-(difluoromethoxy)pyridin-2-amine] are 5.84 and 7.28.
`CC1COCCN1C1C[C@@H]2[C@H](C1)[C@H]2n1cc(-c2cnc(N)c(OC(F)(F)F)c2)nc1C1CC1` (some centres unmarked) [Example 148, 5-(2-cyclopropyl-1-(3-(3-methylmorpholino)bicyclo[3.1.0]hexan-6-yl)-1H-imidazol-4-yl)-3-(trifluoromethoxy)pyridin-2-amine] gave a pIC50 against human DLK [1] of 6.15. The compound also showed a pKd at human DLK [2] of 7.66.
The corresponding values for `Nc1ncc(-c2cn([C@H]3[C@@H]4CN(C5CCOCC5)C[C@@H]43)c(CC3CC3)n2)cc1OC(F)F` [Example 88, 5-(2-(cyclopropylmethyl)-1-((1R,5S,6s)-3-(tetrahydro-2H-pyran-4-yl)-3-azabicyclo[3.1.0]hexan-6-yl)-1H-imidazol-4-yl)-3-(difluoromethoxy)pyridin-2-amine] are 6.00 and 7.15.
The corresponding values for `CC(C)Cc1nc(-c2cnc(N)c(C(F)(F)F)c2)cn1[C@H]1[C@@H]2CC(N3CCN(CCF)CC3)C[C@@H]21` (single isomer, unassigned) [Example 160b, 5-(1-(3-(4-(2-fluoroethyl)piperazin-1-yl)bicyclo[3.1.0]hexan-6-yl)-2-isobutyl-1H-imidazol-4-yl)-3-(trifluoromethyl)pyridin-2-amine] are 6.11 and 8.06.
The corresponding values for `Nc1ncc(-c2cn([C@H]3[C@@H]4CC(N5CCN(CCF)CC5)C[C@@H]43)c(C3CC3)n2)cc1C(F)(F)F` (single isomer, unassigned) [Example 153b, 5-(2-cyclopropyl-1-(3-(4-(2-fluoroethyl)piperazin-1-yl)bicyclo[3.1.0]hexan-6-yl)-1H-imidazol-4-yl)-3-(trifluoromethyl)pyridin-2-amine] are 6.09 and 8.05.
For the compound `Nc1ncc(-c2cn([C@H]3[C@@H]4CN(C5COC5)C[C@@H]43)c(C3CC3)n2)cc1C(F)(F)F` [Example 73, 5-(2-cyclopropyl-1-((1R,5S,6s)-3-(oxetan-3-yl)-3-azabicyclo[3.1.0]hexan-6-yl)-1H-imidazol-4-yl)-3-(trifluoromethyl)pyridin-2-amine], the pIC50 against human DLK [1] is 5.92. The same compound had a negative logarithm of the Kd (pKd) at human DLK [2] of 7.25.
The corresponding values for `Nc1ncc(-c2cn([C@H]3[C@@H]4CC(N5CCN(CCF)CC5)C[C@@H]43)c(CC3CC3)n2)cc1OC(F)(F)F` (single isomer, unassigned) [Example 152a, 5-(2-(cyclopropylmethyl)-1-(3-(4-(2-fluoroethyl)piperazin-1-yl)bicyclo[3.1.0]hexan-6-yl)-1H-imidazol-4-yl)-3-(trifluoromethoxy)pyridin-2-amine] are 5.87 and 7.43.
The corresponding values for `Nc1ncc(-c2cn([C@H]3[C@@H]4CNC[C@@H]43)c(CC3CC3)n2)cc1OC(F)(F)F` [Example 90, 5-(1-((1R,5S,6s)-3-azabicyclo[3.1.0]hexan-6-yl)-2-(cyclopropylmethyl)-1H-imidazol-4-yl)-3-(trifluoromethoxy)pyridin-2-amine] are 5.95 and 7.40.
The corresponding values for `CC(C)c1nc(-c2cnc(N)c(C(F)(F)F)c2)cn1[C@H]1[C@@H]2CC(N3CCN(CCF)CC3)C[C@@H]21` (single isomer, unassigned) [Example 155b, 5-(1-(3-(4-(2-fluoroethyl)piperazin-1-yl)bicyclo[3.1.0]hexan-6-yl)-2-isopropyl-1H-imidazol-4-yl)-3-(trifluoromethyl)pyridin-2-amine] are 5.94 and 8.35.
In the case of `Nc1ncc(-c2cn([C@H]3[C@@H]4CC(N5CCOCC5)C[C@@H]43)c(C3CC3)n2)cc1C(F)(F)F` (single isomer, unassigned) [Example 128b, 5-(2-cyclopropyl-1-(3-morpholinobicyclo[3.1.0]hexan-6-yl)-1H-imidazol-4-yl)-3-(trifluoromethyl)pyridin-2-amine], the pIC50 on human DLK [1] is 6.12. For the same compound, the pKd on human DLK [2] was 7.66.
As for `CC(C)c1nc(-c2cnc(N)c(C(F)(F)F)c2)cn1[C@H]1[C@@H]2CC(N3CCN(C)CC3)C[C@@H]21` (some centres unmarked) [Example 144, 5-(2-isopropyl-1-(3-(4-methylpiperazin-1-yl)bicyclo[3.1.0]hexan-6-yl)-1H-imidazol-4-yl)-3-(trifluoromethyl)pyridin-2-amine], at human DLK [1], the pIC50 was 6.07. The compound also had a negative-log Kd (pKd) on human DLK [2] of 7.42.
On to `CC(C)c1nc(-c2cnc(N)c(OC(F)(F)F)c2)cn1[C@H]1[C@@H]2CC(N3CCN(C)CC3)C[C@@H]21` (single isomer, unassigned) [Example 133b, 5-(2-isopropyl-1-(3-(4-methylpiperazin-1-yl)bicyclo[3.1.0]hexan-6-yl)-1H-imidazol-4-yl)-3-(trifluoromethoxy)pyridin-2-amine], for which, at human DLK [1], the pIC50 was 6.19. On human DLK [2], this compound gave a pKd of 7.68.
The corresponding values for `CC(C)Cc1nc(-c2cnc(N)c(OC(F)(F)F)c2)cn1[C@H]1[C@@H]2CC(N3CCN(CCF)CC3)C[C@@H]21` (single isomer, unassigned) [Example 159b, 5-(1-(3-(4-(2-fluoroethyl)piperazin-1-yl)bicyclo[3.1.0]hexan-6-yl)-2-isobutyl-1H-imidazol-4-yl)-3-(trifluoromethoxy)pyridin-2-amine] are 5.81 and 7.31.
The corresponding values for `Nc1ncc(-c2cn([C@H]3[C@@H]4CN(C5CCOCC5)C[C@@H]43)c(CC3CC3)n2)cc1OC(F)(F)F` [Example 97, 5-(2-(cyclopropylmethyl)-1-((1R,5S,6s)-3-(tetrahydro-2H-pyran-4-yl)-3-azabicyclo[3.1.0]hexan-6-yl)-1H-imidazol-4-yl)-3-(trifluoromethoxy)pyridin-2-amine] are 5.72 and 7.24.
